Data on four compounds can be found in US7718768B2, “Biologically active peptide [sequence]” (CMS Peptides Patent Holding Company Limited, priority 2001, dated 2010).

The test system of one series is anti-SRBC antibody. As to the kind of experiment: Sheep Red Blood Cell (SRBC) hemolysis test, anti-SRBC antibody formation. The series is classed as in vivo, BALB/c mice. Particulars: SRBC on day 12, IFN-γ and IL-2 groups 3×10^5 IU/kg/day, X ± SD. The protocol: Sheep red blood cells (SRBC) were prepared by collecting blood from cervical vein and put into a sterile flask with glass beads. The flask was shaken for 3 minutes and the blood then mixed with Alsever solution (glucose 2.05 g, NaCl 0.4 g, […] 0.8 g, adjust to 100 ml with distilled water) and stored at 4° C. Immediately before use, samples were centrifuged at 130 g, 5 minutes to collect the SRBC. The cells were washed two times by re-suspension and centrifugation in normal saline. Then the cell pellet was collected by centrifugation at 180 g for 10 minutes and re-suspended in saline to make the final working SRBC suspension, 2% (v/v).
Complement was prepared by adding 10 volumes of fresh Cavy serum into one volume centrifuge packed SRBC, and then gently shaking for 30 minutes at 4° C. The SRBC was removed by centrifugation at 200 g for 10 minutes. 10 volumes of normal saline were added to obtain the working complement solution.
The test substances were administered as described in section 1.1, plus intraperitoneal injection 0.2 ml SRBC per mouse on day 12. On the day after the last test substance administration (day 16), blood was collected from the eye canthus and left at room temperature for one hour for serum exudation. After centrifugation at 200 g for 10 minutes, the serum was diluted by 500 times with normal saline.
To 1 ml diluted mouse serum of each mouse, 0.5 ml SRBC suspension was added. Ice cold. Then 1 ml working complement solution was added and incubated at 37° C. water bath for 10 minutes. Reactions were terminated by ice cold. Samples were then centrifuged at 200 g for 10 minutes to obtain the supernatant.
To 1 ml of this supernatant, 3 ml Drabkin solution was added and left at room temperature for 10 minutes. OD540nm was obtained.
Reference OD540nm was obtained by mixing 0.25 ml SRBC suspension with Drabkin solution to 4 ml and placed at room temperature for 10 minutes before OD540nm was taken. Sample serum index=(OD540nm of test sample[…]reference OD540nm)×500 3. The Effect of Peptides on the Phagocytosis Function of Mononuclear Phagocyte and the Weight of Immune Organ^[8,9].

The subject of the next series is mononuclear phagocyte. As to the kind of experiment: carbon particle clearance test, phagocytotic activity of mononuclear phagocyte. It counts as in vivo, BALB/c mice. More on the design: key: α = (cube root of K)×(body weight ÷ liver+spleen weight). Particulars: IFN-γ and IL-2 groups 3×10^5 IU/kg/day, X ± SD. The protocol: On the next day after the last test substance administration (day 16), the mice were injected with […] body weight India ink (5 times dilution with normal saline) from the tail vein.
One minute and five minutes after Indian ink injection, 20 μl blood was obtained from the eye can thus with a heparinized tubing. The blood was mixed with 2 ml 0.1% w/v Na2CO3 and then OD680nm obtained. The outline clear index K was calculated by the following formula: K=(lgA1−lgA2)÷(t2−t1) Key: A1: OD680nm at first minute A2: OD680nm at fifth minute t2: 5 minutes […]
(§1) One day after the last test substance administration (day 16), the liver, spleen, and thymus gland were separated and blotted dry with filter paper and weighed. The phagocytosis index α was calculated as below: α=(^3√K)(W÷WLS) key: W: body weight WLS: weight of liver plus spleen Thymus gland index(%)=(thymus weight/body weight)×100% Spleen index(%)=(spleen weight/body weight)×100%

Series [1] in a line: immunity organ weight test (thymus gland index, spleen index). The series is classed as in vivo, BALB/c mice. Particulars: IFN-γ and IL-2 groups 3×10^5 IU/kg/day, X ± SD. On the procedure: (§2) The above substances were all dissolved in 0.5 ml saline and injected intraperitoneal (i.p.) for 15 continuous days, once per day.
as §1

For series [2], the system named is Masugi nephritis rat model. Kind of series: Masugi nephritis rat model. The series is classed as in vivo, Sprague Dawley (SD) rats. The source says: The anti-serum was then exuded and isolated. Whole blood was collected from 15 healthy SD rats. […] Treatment started on the day of induction. […] Adequate drinking water was supplied.
For another series, the system named is NK cell. As to the kind of experiment: NK cell cytotoxicity activity test (YAC-1 target cells, MTT) on spleen cells of treated mice. Particulars: IFN-γ and IL-2 groups 3×10^5 IU/kg/day, X ± SD. It counts as in vivo, BALB/c mice. The protocol: as §2
(§3) Ten mice per group. The day after the last test substance administration, the mice were sacrificed by cervical dislocation. The spleen was isolated aseptically and manually dispersed in cold D-Hank's solution using an injection needle. The dispersed cell suspension was further sieved through a 100 gauge 150 μm diameter stainless steel sieve. After centrifugation at 200 g for 10 minutes, the supernatant was discarded. The cell pellet was re-suspended in 10 volume of Tris-NH4Cl buffer and then kept standing still for 10 minutes at room temperature. The suspended cells were collected by centrifugation at 150 g for 10 minutes. The cells were washed 2-4 times with cold D-Hank's solution by re-suspending and collecting by centrifugation with condition as described above. The washed cells were then diluted to the desired cell densities by RPMI-1640 culture medium, containing 10% fetal bovine serum.
Mice spleen cells were prepared to 4×10^6/ml as described in section 1.1 above. Target cells YAC-1 were brought to log phase and adjusted to 1×10^5/ml. Using a 96 wells cell culture plate, 100 μl mouse spleen cells and 100 μl culture medium were added to the control well containing only the spleen cells; 100 μl target cells and 100 μl culture medium were added to the control well containing only target cells; 100 μl mouse spleen cells and 100 μl target cells were added to the NK activity assay well. Three parallel sets of the above were prepared per mouse.
Samples were centrifuged at 150 g for 10 minutes to collect the cells. The supernatant was discarded and 50 μl/well MTT of 1 mg/ml was added. The reaction mixture was then shaken for 2 minutes, and incubated at 37° C., 5% CO2 for 4 hours. The supernatant was discarded after centrifugation at 150 g for 10 minutes. 120 μl 40 mM HCl-2-propanol was added and shaken for 3 minutes. An ELISA reader was used to obtain OD570nm of each well referenced at 630 nm.

Series [3] deals with T lymphocyte. Kind of series: T lymphocyte IL-2 secretion test (HT-2 cell bioassay of ConA supernatant). The series is classed as in vivo, BALB/c mice. Particulars: IFN-γ and IL-2 groups 3×10^5 IU/kg/day, X ± SD. On the procedure: as §2
(§4) Spleen cells of density 1×10^6/ml were placed onto a 96 wells cell culture plate, 100 μl/well, three parallel wells each of the assay sample and control sample per mouse. To the assay wells, 100 μl/well ConA of 100 μg/ml in RPMI-1640 was added, and 100 μl/well plain RPMI-1640 was used for the controls. The cells were incubated for 66 hrs at 37° C., 5% CO2. The cells were then pelleted by centrifugation at 150 g for 10 minutes.
HT-2 cells at log phase were collected by centrifugation at 150 g for 10 minutes, and washed three times with cold Hank's solution by re-suspension and centrifugation. The collected HT-2 cells were re-suspended in RPMI-1640 and incubated at 37° C., 5% CO2 for 30 minutes. The cells were further washed twice with RPMI-1640 by re-suspension and centrifugation, and re-suspended to final concentration of 2×10^5/ml with RPMI-1640.
rIL-2 was diluted to the following concentration with RPMI-1640: 500 IU/ml, 250 IU/ml, 125 IU/ml, 62.5 IU/ml, 31.25 IU/ml, and […].
A 96 well cell culture plate was set up with three parallel wells per combination:
Negative control: 100 μl RPMI-1640+100 μl HT-2 cell suspension
rIL-2 standard: 100 μl rIL-2 solution+100 μl HT-2 cell suspension
Assay well: 100 μl diluted supernatant+100 μl HT-2 cell suspension
The plate was incubated at 37° C., 5% CO2 for 68 hours, then centrifuged at 150 g for 15 minutes and the supernatant removed. 100 μl 0.5 mg/ml MTT in RPMI-1640 without phenolsulfonphthalein was added into each well. After shaking for 3-4 minutes to re-suspend the cells, continue to incubate for another 4 hours. Samples were then centrifuged at 150 g for 15 minutes and the supernatant was removed. To each well, 120 μl 40 mM HCl-2-propanol was added, mixed for 3-4 minutes and OD analyzed at 570 nm, referenced at 630 nm with an ELISA plate reader.
The average OD of the three parallel wells of each dilution was taken and plotted against concentration on a semi-log paper, concentration on the X-axis. The concentration at 50% OD saturation was obtained for both the testing supernatant and rIL-2.

Series [4] concerns T lymphocyte. On the set-up: species or system BALB/c mice. Particulars: mouse, in vivo, ip.
For series [5], the system named is T lymphocyte. As to the kind of experiment: T lymphocyte transformation test (ConA, MTT) on spleen cells of treated mice. Particulars: peptide 500 μg/kg/day i.p. 15 days; IFN-γ and IL-2 groups 3×10^5 IU/kg/day; X ± SD. More on the design: key: OD of assay wells divided by OD of control wells. The series is classed as in vivo, BALB/c mice. On the procedure: as §2, §3, §4
50 μl/well MTT of 1 mg/ml in RPMI-1640 was added to the cell pellet and the cells re-suspended by shaking for 2 minutes. The incubation was continued for 4 hours. The supernatant was discarded after centrifugation at 150 g for 10 minutes. 120 μl 40 mM HCl-2-propanol was added to the cell pellet and shaken for 3 minutes. to obtain OD570nm of each well referenced at 630 nm. An ELISA reader was used
Each mouse formed three assay wells and three control wells. The Stimulation Index (SI) of each mouse was obtained by first deriving the average OD of the three parallel wells, then dividing the value of the assay wells by the control wells.

Setting [6] is: peptide 0.5 μg/kg/day i.p. 15 days.
The mark [7] stands for this setting: peptide 500 μg/kg/day i.p. 15 days.
Where [8] appears, read: peptide 5 μg/kg/day i.p. 15 days.
Setting [9] is: peptide 50 μg/kg/day i.p. 15 days.
The mark [10] stands for this setting: after three weeks of treatment, peptides 50 μg/kg/day i.p., hydrocortisone 3.3 mg/kg/day i.p.

Marks after values point to notes of the source that are not given here. No end group written: not given here.

For VGMGEKDSY [CMS018], the “anti-SRBC antibody formation (sample serum index)” value in the series on anti-SRBC antibody (setting [6]) was 3 ± 1* Unit; in the series on anti-SRBC antibody (setting [7]) it was 66 ± 16* Unit. Besides, the phagocytotic index in the series on mononuclear phagocyte (setting [8]) is listed as 6.7 ± 1.2. In addition, the “weight of thymus gland (thymus gland index)” value (“weight … (thymus gland index)” below) in series [1] (setting [6]) is listed as 0.20 ± 0.03 %; in series [1] (setting [8]), 0.24 ± 0.04*^@^ %; in series [1] (setting [9]), 0.23 ± 0.02*^@^ %. The urine protein level in series [2] (Week 1, 24 hours urine, peptides 50 μg/kg/day i.p., hydrocortisone 3.3 mg/kg/day i.p.) worked out at 7.0 ± 3.7 mg; in series [2] (Week 2, 24 hours urine, peptides 50 μg/kg/day i.p., hydrocortisone 3.3 mg/kg/day i.p. (halved after first week)), 5.5 ± 7.9 mg. Further, the Serum creatinine level in series [2] (setting [10]) was 67 ± 1 µmol/L. The spleen index in series [2] (setting [10]) is recorded as 3.3 ± 0.8 ×10^−3. In series [2] (peptides 50 μg/kg/day i.p. 3 weeks, 6 heaviest kidneys per group), the “renal pathological microscopic examination” value is given as “all pathological parameters of all rats were normal”.
Regarding “Tyr Ser Phe (YSF; listed as Sus scrofa) [CMS022]”, in the series with NK cell (setting [6]), the “NK cell cytotoxic activity (NK cell activity index)” value turned out to be 73 ± 11 %. The “activity of T lymphocyte in secreting IL-2” value with T lymphocyte [3] (setting [6]) is 109 ± 14*^@^ IU. Besides, the “activity of T lymphocyte in secreting IFN” value in the series with T lymphocyte [4] was 145 ± 13*^@^ IU. In addition, the “anti-SRBC antibody formation (sample serum index)” value with anti-SRBC antibody (setting [9]) is reported as 110 ± 16*^@^ Unit; in the series with anti-SRBC antibody (setting [7]), 68 ± 31* Unit. Further, the phagocytotic index in the series on mononuclear phagocyte (setting [7]) is reported as 7.4 ± 0.6*^@^. Also, the “weight … (thymus gland index)” value in series [1] (setting [6]) is 0.21 ± 0.06 %; in series [1] (setting [8]) it was 0.25 ± 0.04*^@^ %; in series [1] (setting [9]) it was 0.30 ± 0.03*^@^ %; in series [1] (setting [7]), 0.26 ± 0.05*^@^ %.
Consider LGMEACGIHETTY [CMS012], for which the “stimulation index (T lymphocyte transformation)” value in the series on T lymphocyte [5] was determined as 1.6 ± 0.2. The results for the “NK cell cytotoxic activity (NK cell activity index)” value in the series with NK cell (setting [6]), with NK cell (setting [8]) and in the series with NK cell (setting [9]) were 77 ± 6 %, 85 ± 7 % and 40 ± 9 %, respectively. The “activity of T lymphocyte in secreting IL-2” value in the series with T lymphocyte [3] (setting [6]) came out at 59 ± 13 IU; in the series with T lymphocyte [3] (setting [8]), 65 ± 16 IU. The “activity of T lymphocyte in secreting IFN” value in the series on T lymphocyte [4] is recorded as 86 ± 9 IU. Moreover, the results for the “anti-SRBC antibody formation (sample serum index)” value with anti-SRBC antibody (setting [8]), in the series with anti-SRBC antibody (setting [9]) and with anti-SRBC antibody (setting [7]) were 81 ± 22*^@ Unit, 50 ± 14* Unit and 141 ± 21*^@^ Unit, respectively. For the same compound, the “weight … (thymus gland index)” value in series [1] (setting [6]) is 0.22 ± 0.06*^ %; in series [1] (setting [8]), 0.27 ± 0.06*^@^ %; in series [1] (setting [9]), 0.26 ± 0.02*^@^ %.
In turn, `C[C@]12CCC(=O)C=C1CC[C@@H]1[C@@H]2[C@@H](O)C[C@@]2(C)[C@H]1CC[C@]2(O)C(=O)CO` [hydrocortisone, Hydrocortisone, reference compound] came in with a Serum creatinine level in series [2] (setting [10]) of 239 ± 107 µmol/L. Also, the “growth rate of treated nephritis rats” value in series [2] (peptides 50 μg/kg/day i.p., hydrocortisone 3.3 mg/kg/day i.p.) is recorded as “slower growth rate than normal”.
